# Data: ChEMBL document CHEMBL5291721, “A preclinical secondary pharmacology resource illuminates target-adverse drug reaction associations of marketed drugs” (Nat Commun, 2023)
# Tests used:
# [1] = target: Gamma-aminobutyric acid receptor subunit alpha-1 (Rattus norvegicus, UniProt P62813)
# [2] = target: T1, 5-hydroxytryptamine receptor 1A (Homo sapiens, UniProt P08908); format: functional, cell-based
# T1 sequence (P08908 whole entry): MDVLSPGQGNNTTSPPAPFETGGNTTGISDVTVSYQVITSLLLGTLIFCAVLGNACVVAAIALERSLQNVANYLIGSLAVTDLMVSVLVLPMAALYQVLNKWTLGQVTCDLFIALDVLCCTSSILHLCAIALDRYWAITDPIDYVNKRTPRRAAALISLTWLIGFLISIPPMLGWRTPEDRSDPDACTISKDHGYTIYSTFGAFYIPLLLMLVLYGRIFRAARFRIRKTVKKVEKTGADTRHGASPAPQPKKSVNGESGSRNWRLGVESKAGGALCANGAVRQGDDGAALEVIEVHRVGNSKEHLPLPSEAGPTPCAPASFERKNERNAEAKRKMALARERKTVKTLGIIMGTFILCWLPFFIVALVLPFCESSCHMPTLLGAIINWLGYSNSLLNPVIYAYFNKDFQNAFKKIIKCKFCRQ
# [3] = target: Kappa-type opioid receptor (Homo sapiens, UniProt P41145)
# Chain of Kappa-type opioid receptor (P41145 whole entry): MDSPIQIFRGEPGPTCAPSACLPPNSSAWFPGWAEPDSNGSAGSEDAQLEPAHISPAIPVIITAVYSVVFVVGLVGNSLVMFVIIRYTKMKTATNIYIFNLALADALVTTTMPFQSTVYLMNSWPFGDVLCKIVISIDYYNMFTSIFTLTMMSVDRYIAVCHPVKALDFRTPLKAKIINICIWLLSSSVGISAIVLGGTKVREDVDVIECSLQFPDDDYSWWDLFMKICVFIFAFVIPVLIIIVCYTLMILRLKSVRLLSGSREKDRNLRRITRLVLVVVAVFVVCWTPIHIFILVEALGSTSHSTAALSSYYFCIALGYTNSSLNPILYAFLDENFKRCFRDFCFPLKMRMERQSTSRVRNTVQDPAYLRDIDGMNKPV
# [4] = target: Delta-type opioid receptor (Homo sapiens, UniProt P41143)
# Chain of Delta-type opioid receptor (P41143 whole entry): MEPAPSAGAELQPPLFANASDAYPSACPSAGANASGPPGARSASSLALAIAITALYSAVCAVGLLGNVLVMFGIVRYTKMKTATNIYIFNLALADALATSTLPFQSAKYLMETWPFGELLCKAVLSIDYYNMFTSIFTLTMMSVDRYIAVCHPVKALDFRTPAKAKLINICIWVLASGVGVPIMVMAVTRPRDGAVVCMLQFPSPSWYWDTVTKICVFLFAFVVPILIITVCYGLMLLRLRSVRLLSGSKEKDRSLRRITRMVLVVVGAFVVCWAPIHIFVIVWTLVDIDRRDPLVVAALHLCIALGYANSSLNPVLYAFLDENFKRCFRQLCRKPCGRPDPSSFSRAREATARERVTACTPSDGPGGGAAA
# [5] = target: T2, Amine oxidase [flavin-containing] A (Homo sapiens, UniProt P21397); format: functional
# T2 sequence (P21397 whole entry): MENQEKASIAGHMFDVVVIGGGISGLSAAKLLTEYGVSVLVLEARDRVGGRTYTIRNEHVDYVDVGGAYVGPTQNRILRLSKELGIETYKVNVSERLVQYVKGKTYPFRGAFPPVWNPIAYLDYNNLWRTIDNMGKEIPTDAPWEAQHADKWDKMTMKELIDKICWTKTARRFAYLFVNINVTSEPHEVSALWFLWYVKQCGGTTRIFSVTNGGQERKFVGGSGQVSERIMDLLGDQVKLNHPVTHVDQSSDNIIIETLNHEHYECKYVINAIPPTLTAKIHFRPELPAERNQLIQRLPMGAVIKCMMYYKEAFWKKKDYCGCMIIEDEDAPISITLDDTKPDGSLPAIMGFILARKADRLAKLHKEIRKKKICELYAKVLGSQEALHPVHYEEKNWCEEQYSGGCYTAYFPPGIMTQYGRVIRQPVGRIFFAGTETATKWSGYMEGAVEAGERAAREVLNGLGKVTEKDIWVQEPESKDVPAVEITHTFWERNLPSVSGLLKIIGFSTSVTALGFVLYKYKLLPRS
# Adenosine receptor A3 [6] = target: T3, Adenosine receptor A3 (Homo sapiens, UniProt P0DMS8)
# T3 sequence (P0DMS8 whole entry): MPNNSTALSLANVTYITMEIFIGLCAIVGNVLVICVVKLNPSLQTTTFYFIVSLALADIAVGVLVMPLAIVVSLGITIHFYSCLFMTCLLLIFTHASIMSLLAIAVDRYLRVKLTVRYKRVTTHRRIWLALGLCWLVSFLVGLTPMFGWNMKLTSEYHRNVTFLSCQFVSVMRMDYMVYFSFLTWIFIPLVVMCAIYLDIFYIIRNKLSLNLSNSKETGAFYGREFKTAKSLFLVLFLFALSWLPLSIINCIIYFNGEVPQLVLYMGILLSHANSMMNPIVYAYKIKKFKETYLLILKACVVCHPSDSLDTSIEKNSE
# Adenosine receptor A2a = Adenosine receptor A2a (Homo sapiens, UniProt P29274)
# Chain of Adenosine receptor A2a (P29274 whole entry): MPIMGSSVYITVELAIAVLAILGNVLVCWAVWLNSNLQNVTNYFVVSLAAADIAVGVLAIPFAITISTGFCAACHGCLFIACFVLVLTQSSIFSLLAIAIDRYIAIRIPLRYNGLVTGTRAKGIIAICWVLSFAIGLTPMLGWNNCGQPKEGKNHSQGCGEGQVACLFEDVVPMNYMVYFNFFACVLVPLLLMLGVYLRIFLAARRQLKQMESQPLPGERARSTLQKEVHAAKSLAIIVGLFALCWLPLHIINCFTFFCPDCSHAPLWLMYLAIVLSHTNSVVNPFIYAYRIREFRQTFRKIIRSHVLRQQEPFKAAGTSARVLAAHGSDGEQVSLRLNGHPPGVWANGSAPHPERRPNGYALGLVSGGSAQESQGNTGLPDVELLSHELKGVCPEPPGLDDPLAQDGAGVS
# [7] = target: T4, Type-1 angiotensin II receptor (Homo sapiens, UniProt P30556)
# T4 sequence (P30556 whole entry): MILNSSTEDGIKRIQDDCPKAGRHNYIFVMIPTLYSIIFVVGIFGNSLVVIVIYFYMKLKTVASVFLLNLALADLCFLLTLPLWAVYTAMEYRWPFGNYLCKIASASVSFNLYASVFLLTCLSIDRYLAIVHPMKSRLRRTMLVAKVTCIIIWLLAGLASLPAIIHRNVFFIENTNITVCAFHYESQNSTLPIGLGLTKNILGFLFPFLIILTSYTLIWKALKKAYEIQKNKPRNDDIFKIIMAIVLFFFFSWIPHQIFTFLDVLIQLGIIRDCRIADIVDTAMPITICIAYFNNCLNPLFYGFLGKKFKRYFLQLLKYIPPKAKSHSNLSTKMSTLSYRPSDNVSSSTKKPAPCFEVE
# Adenosine receptor A3 [8] = target: T3, Adenosine receptor A3; remark: listed apart in the source
# [9] = target: Growth hormone secretagogue receptor type 1 (Homo sapiens, UniProt Q92847)
# Chain of Growth hormone secretagogue receptor type 1 (Q92847 whole entry): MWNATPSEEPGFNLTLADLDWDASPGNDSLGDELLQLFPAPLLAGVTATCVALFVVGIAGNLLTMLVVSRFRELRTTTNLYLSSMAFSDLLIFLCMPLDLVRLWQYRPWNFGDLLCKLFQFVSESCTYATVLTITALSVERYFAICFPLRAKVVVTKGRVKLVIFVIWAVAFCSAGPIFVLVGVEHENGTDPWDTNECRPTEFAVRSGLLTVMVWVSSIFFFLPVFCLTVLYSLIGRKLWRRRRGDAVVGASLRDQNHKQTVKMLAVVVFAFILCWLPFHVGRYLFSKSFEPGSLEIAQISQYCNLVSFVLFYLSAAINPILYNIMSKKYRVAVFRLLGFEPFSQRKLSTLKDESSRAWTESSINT
# [10] = target: Beta-1 adrenergic receptor (Homo sapiens, UniProt P08588); format: functional
# Chain of Beta-1 adrenergic receptor (P08588 whole entry): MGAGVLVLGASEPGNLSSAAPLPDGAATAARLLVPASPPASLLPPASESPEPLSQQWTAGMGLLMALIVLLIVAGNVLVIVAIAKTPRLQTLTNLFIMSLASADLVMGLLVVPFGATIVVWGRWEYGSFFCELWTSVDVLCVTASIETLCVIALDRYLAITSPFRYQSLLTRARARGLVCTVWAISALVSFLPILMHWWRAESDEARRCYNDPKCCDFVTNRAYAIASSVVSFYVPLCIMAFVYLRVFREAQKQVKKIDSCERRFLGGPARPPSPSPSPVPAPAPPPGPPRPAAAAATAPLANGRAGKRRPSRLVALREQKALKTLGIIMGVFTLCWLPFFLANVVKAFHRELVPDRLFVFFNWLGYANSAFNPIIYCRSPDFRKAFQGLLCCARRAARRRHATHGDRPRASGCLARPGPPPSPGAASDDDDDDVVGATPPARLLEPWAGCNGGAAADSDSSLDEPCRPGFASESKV
# Motilin receptor = Motilin receptor (Homo sapiens, UniProt O43193)
# Chain of Motilin receptor (O43193 whole entry): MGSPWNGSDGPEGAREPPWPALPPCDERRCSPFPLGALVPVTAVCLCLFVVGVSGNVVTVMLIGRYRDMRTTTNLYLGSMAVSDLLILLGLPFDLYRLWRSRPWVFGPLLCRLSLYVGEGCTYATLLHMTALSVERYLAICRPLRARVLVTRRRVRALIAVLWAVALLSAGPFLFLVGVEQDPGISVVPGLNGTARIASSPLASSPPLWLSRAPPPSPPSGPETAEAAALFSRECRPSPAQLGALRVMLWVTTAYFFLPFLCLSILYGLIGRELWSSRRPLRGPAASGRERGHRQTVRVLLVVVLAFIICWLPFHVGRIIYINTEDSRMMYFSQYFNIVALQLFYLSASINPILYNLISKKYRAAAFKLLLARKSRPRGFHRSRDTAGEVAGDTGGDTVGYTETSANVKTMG
# [11] = target: T5, 5-hydroxytryptamine receptor 2C (Homo sapiens, UniProt P28335)
# T5 sequence (P28335 whole entry): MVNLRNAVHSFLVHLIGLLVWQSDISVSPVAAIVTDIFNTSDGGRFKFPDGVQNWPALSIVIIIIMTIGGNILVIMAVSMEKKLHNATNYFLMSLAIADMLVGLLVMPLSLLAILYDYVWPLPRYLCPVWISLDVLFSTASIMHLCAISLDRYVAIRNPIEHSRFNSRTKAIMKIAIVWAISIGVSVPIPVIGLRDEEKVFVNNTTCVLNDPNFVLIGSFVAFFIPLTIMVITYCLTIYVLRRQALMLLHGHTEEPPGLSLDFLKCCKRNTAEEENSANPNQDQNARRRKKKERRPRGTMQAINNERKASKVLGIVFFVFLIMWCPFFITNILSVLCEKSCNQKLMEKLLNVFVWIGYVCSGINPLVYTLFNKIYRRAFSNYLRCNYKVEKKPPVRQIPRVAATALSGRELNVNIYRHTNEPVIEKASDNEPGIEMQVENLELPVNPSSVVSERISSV
# Thromboxane A2 receptor = target: T6, Thromboxane A2 receptor (Homo sapiens, UniProt P21731)
# T6 sequence (P21731 whole entry): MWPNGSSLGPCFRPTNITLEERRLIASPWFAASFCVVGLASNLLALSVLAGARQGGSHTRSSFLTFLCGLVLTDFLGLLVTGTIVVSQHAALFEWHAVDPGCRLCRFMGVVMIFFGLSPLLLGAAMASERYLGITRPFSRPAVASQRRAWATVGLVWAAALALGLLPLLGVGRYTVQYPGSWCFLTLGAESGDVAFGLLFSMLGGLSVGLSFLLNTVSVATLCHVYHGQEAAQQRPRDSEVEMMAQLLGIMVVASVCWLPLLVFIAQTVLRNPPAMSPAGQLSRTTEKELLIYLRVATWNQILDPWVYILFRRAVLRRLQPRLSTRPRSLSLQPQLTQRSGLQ
# Also: assay procedure not described here.
# Chain of Gamma-aminobutyric acid receptor subunit alpha-1 (P62813 whole entry): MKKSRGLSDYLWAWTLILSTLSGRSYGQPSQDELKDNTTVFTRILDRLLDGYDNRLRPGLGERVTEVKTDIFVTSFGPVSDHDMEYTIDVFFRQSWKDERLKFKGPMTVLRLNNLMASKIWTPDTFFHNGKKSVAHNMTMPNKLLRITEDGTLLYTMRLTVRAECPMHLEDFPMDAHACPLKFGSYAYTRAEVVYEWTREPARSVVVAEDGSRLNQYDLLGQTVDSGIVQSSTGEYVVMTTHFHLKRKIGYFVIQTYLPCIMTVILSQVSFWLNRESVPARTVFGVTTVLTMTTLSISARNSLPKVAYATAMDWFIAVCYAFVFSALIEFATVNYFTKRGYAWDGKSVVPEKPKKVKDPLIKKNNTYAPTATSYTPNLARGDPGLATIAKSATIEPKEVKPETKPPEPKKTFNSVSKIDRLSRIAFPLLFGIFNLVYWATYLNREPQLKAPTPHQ
smiles,measurement,setting,value
CCCCCCCC(=O)N[C@H](CN1CCCC1)[C@H](O)c1ccc2c(c1)OCCO2,AC50,[1],> 30 µM
C[C@@H](O)[C@H]1C(=O)N2C(C(=O)[O-])=C(SC3Cn4cnc[n+]4C3)[C@H](C)[C@H]12 (stereo partly drawn) [BIAPENEM],AC50,[1],> 30 µM
CO[C@@]1(NC(=O)CSCC#N)C(=O)N2C(C(=O)O)=C(CSc3nnnn3C)CS[C@@H]21 [CEFMETAZOLE],AC50,[2],> 30 µM
same,AC50,[3],> 30 µM
same,AC50,[4],> 30 µM
same,AC50,[5],> 30 µM
same,AC50,[1],> 30 µM
O=C(O)CC(O)(CC(=O)O)C(=O)O [CITRIC ACID],AC50,Adenosine receptor A3 [6],> 30 µM
Nc1ccncc1 [DALFAMPRIDINE],AC50,Adenosine receptor A3 [6],> 30 µM
Cc1onc(-c2c(Cl)cccc2Cl)c1C(=O)N[C@@H]1C(=O)N2[C@@H]1SC(C)(C)[C@@H]2C(=O)O [DICLOXACILLIN],AC50,Adenosine receptor A3 [6],> 30 µM
C[C@H]1O[C@@H](O[C@H]2[C@@H](O)C[C@H](O[C@H]3[C@@H](O)C[C@H](O[C@H]4CC[C@@]5(C)[C@H](CC[C@@H]6[C@@H]5CC[C@]5(C)[C@@H](C7=CC(=O)OC7)CC[C@]65O)C4)O[C@@H]3C)O[C@@H]2C)C[C@H](O)[C@@H]1O [DIGITOXIN],AC50,Adenosine receptor A3 [6],> 30 µM
OC(CCCN1CCCCC1)(c1ccccc1)c1ccccc1 [DIPHENIDOL],AC50,Adenosine receptor A3 [6],> 30 µM
C[C@@H](O)[C@H]1C(=O)N2C(C(=O)O)=C([C@H]3CCCO3)S[C@H]12 [FAROPENEM],AC50,Adenosine receptor A3 [6],> 30 µM
COCCOc1cnc(NS(=O)(=O)c2ccccc2)nc1 [GLYMIDINE],AC50,Adenosine receptor A3 [6],> 30 µM
CC(N)CCCC(C)(C)O (stereo not drawn) [HEPTAMINOL],AC50,Adenosine receptor A3 [6],> 30 µM
CCC(=O)O[C@]1(C(=O)COC(C)=O)CC[C@H]2[C@@H]3CCC4=CC(=O)CC[C@]4(C)[C@H]3[C@@H](O)C[C@@]21C [HYDROCORTISONE ACEPONATE],AC50,Adenosine receptor A3 [6],> 30 µM
O=[N+]([O-])O[C@H]1CO[C@H]2[C@@H]1OC[C@H]2O[N+](=O)[O-] [ISOSORBIDE DINITRATE],AC50,Adenosine receptor A3 [6],> 30 µM
Cc1cc(CCN2CCN(c3cccc(Cl)c3)CC2)n[nH]1 [MEPIPRAZOLE],AC50,Adenosine receptor A3 [6],> 30 µM
CC[N+](C)(CC)CCOC(=O)C1c2ccccc2Oc2ccccc21 [METHANTHELINE],AC50,Adenosine receptor A3 [6],> 30 µM
CCC(=O)O[C@@H]1CC(=O)O[C@H](C)C/C=C/C=C/[C@H](OC(C)=O)[C@H](C)C[C@H](CC=O)[C@H](O[C@@H]2O[C@H](C)[C@@H](O[C@H]3C[C@@](C)(OC(C)=O)[C@@H](OC(=O)CC)[C@H](C)O3)[C@H](N(C)C)[C@H]2O)[C@H]1OC [MIOCAMYCIN],AC50,[1],> 30 µM
CCOC(=O)[C@H](CCc1ccccc1)N[C@@H](C)C(=O)N1Cc2cc(OC)c(OC)cc2C[C@H]1C(=O)O [MOEXIPRIL],AC50,Adenosine receptor A3 [6],> 30 µM
CC(c1ccc(Cl)c(Cl)c1)N1N=C(N)CC1=O (stereo not drawn) [MUZOLIMINE],AC50,Adenosine receptor A3 [6],> 30 µM
CCN(CC)CCOC(=O)C(Cc1cccc2ccccc12)CC1CCCO1 (stereo not drawn) [NAFRONYL],AC50,Adenosine receptor A3 [6],> 30 µM
N[C@@H](Cc1c[nH]c2ccc(O)cc12)C(=O)O [OXITRIPTAN],AC50,Adenosine receptor A3 [6],0.765 µM
CNC(=O)Oc1ccc2c(c1)[C@]1(C)CCN(C)[C@@H]1N2C [PHYSOSTIGMINE],AC50,Adenosine receptor A2a,> 30 µM
same,AC50,[7],> 30 µM
same,AC50,[2],> 30 µM
same,AC50,[3],2.2 µM
same,AC50,[4],> 30 µM
same,AC50,Adenosine receptor A3 [6],> 30 µM
same,AC50,[5],> 30 µM
same,AC50,Adenosine receptor A3 [8],> 30 µM
same,AC50,[9],> 30 µM
same,AC50,[10],> 30 µM
same,AC50,Motilin receptor,> 30 µM
same,AC50,[11],> 30 µM
same,AC50,Thromboxane A2 receptor,> 30 µM
c1cc(CN2CCCNCCNCCCNCC2)ccc1CN1CCCNCCNCCCNCC1 [PLERIXAFOR],AC50,Adenosine receptor A3 [6],> 30 µM
CO[C@H]1/C=C/O[C@@]2(C)Oc3c(C)c(O)c4c(O)c(cc(O)c4c3C2=O)NC(=O)/C(C)=C\C=C\[C@H](C)[C@H](O)[C@@H](C)[C@@H](O)[C@@H](C)[C@H](OC(C)=O)[C@@H]1C [RIFAMYCIN],AC50,Adenosine receptor A3 [6],> 30 µM
CCCC(=O)O[C@H]1[C@H](C)O[C@@H](O[C@H]2[C@H](N(C)C)[C@@H](O)[C@H](O[C@H]3[C@@H](CC=O)C[C@@H](C)[C@@H](O)/C=C/C=C/C[C@@H](C)OC(=O)C[C@@H](O)[C@@H]3OC)O[C@@H]2C)C[C@@]1(C)OC(=O)CC [ROKITAMYCIN],AC50,Adenosine receptor A3 [6],> 30 µM
CC(C)=CCOc1ccc(/C=C/C(=O)c2ccc(OCC=C(C)C)cc2OCC(=O)O)cc1 [SOFALCONE],AC50,Adenosine receptor A2a,> 30 µM
same,AC50,[7],7.5 µM
same,AC50,[2],> 30 µM
same,AC50,[3],12 µM
same,AC50,[4],26 µM
same,AC50,[5],> 30 µM
same,AC50,Adenosine receptor A3 [8],5.5 µM
same,AC50,[9],> 30 µM
same,AC50,[10],21 µM
same,AC50,Motilin receptor,> 30 µM
same,AC50,[11],> 30 µM
same,AC50,Thromboxane A2 receptor,13 µM
COc1cc([C@@H]2c3cc4c(cc3[C@@H](O[C@@H]3O[C@@H]5CO[C@@H](c6cccs6)O[C@H]5[C@H](O)[C@H]3O)[C@H]3COC(=O)[C@H]23)OCO4)cc(OC)c1O [TENIPOSIDE],AC50,Adenosine receptor A3 [6],> 30 µM
c1ccc2[nH]c(-c3cscn3)nc2c1 [THIABENDAZOLE],AC50,Adenosine receptor A3 [6],3.73 µM
CCSc1ccc2c(c1)N(CCCN1CCN(C)CC1)c1ccccc1S2 [THIETHYLPERAZINE],AC50,Adenosine receptor A2a,> 30 µM
same,AC50,Adenosine receptor A3 [6],6.62 µM
same,AC50,[5],> 30 µM
same,AC50,Adenosine receptor A3 [8],> 10 µM
same,AC50,[10],> 30 µM
CN(C)c1cc(NC(=O)CNC(C)(C)C)c(O)c2c1C[C@H]1C[C@H]3[C@H](N(C)C)C(O)=C(C(N)=O)C(=O)[C@@]3(O)C(O)=C1C2=O [TIGECYCLINE],AC50,Adenosine receptor A2a,> 30 µM
same,AC50,[7],> 30 µM
same,AC50,[2],> 30 µM
same,AC50,[3],> 30 µM
same,AC50,[4],> 30 µM
same,AC50,[5],> 30 µM
same,AC50,Adenosine receptor A3 [8],26.9 µM
same,AC50,[9],> 30 µM
same,AC50,[10],> 30 µM
same,AC50,Motilin receptor,> 30 µM
same,AC50,[11],> 30 µM
same,AC50,Thromboxane A2 receptor,> 30 µM
OCCN1CCN(CC/C=C2/c3ccccc3Sc3ccc(Cl)cc32)CC1 [ZUCLOPENTHIXOL],AC50,Adenosine receptor A2a,> 10 µM
same,AC50,[7],> 30 µM
same,AC50,[2],> 10 µM
same,AC50,[3],1.94 µM
same,AC50,[4],> 30 µM
same,AC50,[5],> 10 µM
same,AC50,Adenosine receptor A3 [8],> 10 µM
same,AC50,[9],> 10 µM
same,AC50,[10],> 10 µM
same,AC50,Motilin receptor,> 10 µM
same,AC50,[11],1 µM
same,AC50,Thromboxane A2 receptor,> 10 µM
